Source: the supplement of paper PMC10307832

Legend:
Assay in all cases: relative viability (nuclei count vs DMSO), 5 days (fraction); higher = more cells survive
Selisistat + Luminespib = compound: C1CC(C2=C(C1)C3=C(N2)C=CC(=C3)Cl)C(=O)N [Selisistat] + CCNC(=O)c1noc(-c2cc(C(C)C)c(O)cc2O)c1-c1ccc(CN2CCOCC2)cc1 [Luminespib] (partner 0.01 µM)
Outline: (§1)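 Relative viability divides the nuclei count in treated wells by that in vehicle wells. Lung cancer cell lines were seeded in 1536-well plates, dosed by pin tool the next day, and fixed and stained after 5 days in one step with final 0.05% Triton X-100, 1% formaldehyde and 1 ug/ml Hoechst. Dosing was a single drug or a fixed anchor-drug dose plus five library-drug doses (not always all listed) in √10 steps, and values are medians of duplicate plates imaged at 4×.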

Serdemetan + OSI-027 = compound: c1ccc2c(CCNc3ccc(Nc4ccncc4)cc3)c[nH]c2c1 [Serdemetan] + COc1cccc2cc(-c3nc([C@H]4CC[C@H](C(=O)O)CC4)n4ncnc(N)c34)[nH]c12 [OSI-027] (partner 0.5 µM)
Outline: as §1

Selisistat + Crizotinib = compound: C1CC(C2=C(C1)C3=C(N2)C=CC(=C3)Cl)C(=O)N [Selisistat] + C[C@@H](Oc1cc(-c2cnn(C3CCNCC3)c2)cnc1N)c1c(Cl)ccc(F)c1Cl [Crizotinib] (partner 1 µM)
Outline: as §1

Selisistat + Pemetrexed = compound: C1CC(C2=C(C1)C3=C(N2)C=CC(=C3)Cl)C(=O)N [Selisistat] + Nc1nc2[nH]cc(CCc3ccc(C(=O)N[C@@H](CCC(=O)O)C(=O)O)cc3)c2c(=O)[nH]1 [Pemetrexed] (partner 0.2 µM)
Outline: as §1

Cell Line	relative viability (Selisistat + Luminespib; first compound 0.4 µM)	relative viability (Selisistat + Luminespib; first compound 1.265 µM)	relative viability (Selisistat + Luminespib; first compound 12.65 µM)	relative viability (Selisistat + Luminespib; first compound 40 µM)	relative viability (Serdemetan + OSI-027; first compound 0.04 µM)	relative viability (Serdemetan + OSI-027; first compound 0.1265 µM)	relative viability (Serdemetan + OSI-027; first compound 0.4 µM)	relative viability (Serdemetan + OSI-027; first compound 1.265 µM)	relative viability (Serdemetan + OSI-027; first compound 4 µM)	relative viability (Selisistat + Crizotinib; first compound 0.4 µM)	relative viability (Selisistat + Crizotinib; first compound 1.265 µM)	relative viability (Selisistat + Crizotinib; first compound 12.65 µM)	relative viability (Selisistat + Crizotinib; first compound 40 µM)	relative viability (Selisistat + Pemetrexed; first compound 0.4 µM)	relative viability (Selisistat + Pemetrexed; first compound 1.265 µM)	relative viability (Selisistat + Pemetrexed; first compound 4 µM)	relative viability (Selisistat + Pemetrexed; first compound 12.65 µM)	relative viability (Selisistat + Pemetrexed; first compound 40 µM)	relative viability (Selisistat + Luminespib; first compound 4 µM)	relative viability (Selisistat + Crizotinib; first compound 4 µM)
NCI-H358	0.435	0.341	0.469	0.471	0.725	0.816	0.969	0.487	0.536	0.586	0.526	0.621	0.613	0.182	0.221	0.158	0.177	0.19	–	–
NCI-H441	0.294	0.382	0.339	0.344	0.581	0.802	0.622	0.347	0.441	0.754	0.652	0.673	0.806	0.31	0.247	0.293	0.271	0.279	0.349	0.915
NCI-H460	0.0268	0.0346	0.0377	0.0409	0.61	0.691	0.641	0.342	0.0861	1.02	0.658	0.881	0.987	0.0578	0.0622	0.0632	0.0572	0.0629	0.0301	–
NCI-H520	0.233	0.255	0.233	0.206	0.283	0.273	0.297	–	0.293	0.743	0.714	0.742	0.796	0.776	0.676	0.647	0.668	0.644	0.232	0.873
NCI-H596	0.981	0.938	0.668	0.775	0.888	0.699	0.614	0.494	0.519	1.11	0.898	0.991	0.905	0.514	0.546	0.485	0.475	0.478	1.08	0.853
NCI-H647	0.119	0.205	0.111	0.15	0.609	0.634	0.751	0.585	0.648	1.16	1	1.01	0.948	0.165	0.203	0.193	0.174	0.178	0.146	–
NCI-H650	0.874	0.772	0.77	0.665	0.471	0.502	0.578	0.456	0.584	0.707	–	0.596	0.664	0.961	0.907	1.06	0.921	1.18	0.894	0.786
NCI-H661	0.977	0.966	0.833	0.732	0.689	0.706	0.736	0.672	0.69	0.967	0.952	1.04	0.996	0.915	0.898	0.854	0.929	0.861	0.928	1.17
NCI-H838	0.313	0.332	0.392	0.311	0.434	0.416	0.461	0.387	0.463	0.819	0.841	0.759	0.801	0.243	0.243	0.222	0.228	0.226	0.349	0.888
NCI-H1355	0.739	0.834	0.683	0.774	0.465	0.452	0.35	0.35	0.382	1.01	1.08	1.08	1.21	1.12	1.08	1	1.08	1.11	0.596	–
NCI-H1437	1.1	1.12	1.1	0.922	0.872	0.865	0.868	0.585	0.729	0.855	0.885	0.865	0.792	0.321	0.328	0.321	0.28	0.299	1.09	0.977
NCI-H1563	0.473	0.523	0.528	0.541	0.747	0.74	0.732	0.62	0.614	0.804	0.737	0.803	0.776	0.831	0.857	0.713	0.664	0.611	0.54	0.835
NCI-H1650	0.17	0.192	0.202	0.191	0.664	0.701	0.412	0.532	0.473	1.09	0.966	0.899	0.955	0.359	0.348	0.354	0.397	0.326	0.178	0.909
NCI-H1651	1.06	0.827	0.848	0.802	0.627	0.571	0.777	0.369	0.313	0.866	0.893	0.802	0.855	0.64	0.673	0.51	0.519	0.497	0.836	0.907
NCI-H1666	1.05	1	0.995	0.878	0.898	0.887	0.847	0.667	0.771	1.12	0.871	0.835	0.618	0.948	0.803	0.871	0.822	0.853	0.969	0.788
NCI-H1734	0.173	0.194	0.208	0.216	0.586	0.523	0.554	0.138	0.196	0.696	0.606	0.761	0.648	0.357	0.388	0.401	0.434	0.391	0.223	0.714
NCI-H1755	0.415	0.315	0.31	0.377	0.725	0.687	0.686	0.563	0.568	0.917	0.927	0.82	0.946	0.406	0.431	0.524	0.619	0.366	0.619	0.952

Cell Line	relative viability (Selisistat + Luminespib; first compound 0.4 µM)	relative viability (Selisistat + Luminespib; first compound 1.265 µM)	relative viability (Selisistat + Luminespib; first compound 12.65 µM)	relative viability (Selisistat + Luminespib; first compound 40 µM)	relative viability (Serdemetan + OSI-027; first compound 0.04 µM)	relative viability (Serdemetan + OSI-027; first compound 0.1265 µM)	relative viability (Serdemetan + OSI-027; first compound 0.4 µM)	relative viability (Serdemetan + OSI-027; first compound 1.265 µM)	relative viability (Serdemetan + OSI-027; first compound 4 µM)	relative viability (Selisistat + Crizotinib; first compound 0.4 µM)	relative viability (Selisistat + Crizotinib; first compound 1.265 µM)	relative viability (Selisistat + Crizotinib; first compound 12.65 µM)	relative viability (Selisistat + Crizotinib; first compound 40 µM)	relative viability (Selisistat + Pemetrexed; first compound 0.4 µM)	relative viability (Selisistat + Pemetrexed; first compound 1.265 µM)	relative viability (Selisistat + Pemetrexed; first compound 4 µM)	relative viability (Selisistat + Pemetrexed; first compound 12.65 µM)	relative viability (Selisistat + Pemetrexed; first compound 40 µM)	relative viability (Selisistat + Luminespib; first compound 4 µM)	relative viability (Selisistat + Crizotinib; first compound 4 µM)
NCI-H1792	0.406	0.52	0.536	0.399	0.752	0.718	0.677	0.42	0.426	1.01	1.02	0.907	0.965	0.696	0.633	–	0.913	0.755	–	–
NCI-H1915	0.839	0.775	0.695	0.75	0.683	0.688	0.586	0.362	0.566	0.917	0.87	0.885	0.908	0.494	0.559	0.495	0.462	0.489	0.775	0.883
NCI-H1944	0.743	0.58	0.653	0.615	0.435	0.42	0.394	0.331	0.379	1.13	1.01	1.09	1.04	0.634	0.575	0.458	0.674	0.584	–	–
NCI-H1975	0.147	0.301	0.131	0.337	0.851	0.753	0.775	–	0.711	0.904	0.863	0.854	0.807	0.275	0.283	0.3	0.278	0.316	0.168	0.916
NCI-H1993	0.868	0.685	1.06	0.846	0.552	0.614	0.665	0.521	0.533	0.803	0.92	0.987	0.854	0.581	0.711	–	0.554	0.592	0.831	–
NCI-H2009	1.07	1.05	0.944	0.944	0.653	0.678	0.628	0.55	0.466	1.09	1.02	0.989	0.906	1.13	1.07	1.06	1.04	1.04	–	1
NCI-H2023	0.664	0.633	0.628	0.732	0.395	0.383	0.324	0.255	0.191	0.69	0.651	0.68	0.576	0.239	0.259	0.258	0.203	0.236	0.648	0.636
NCI-H2085	0.569	0.406	0.452	0.4	0.701	0.702	0.593	0.61	0.764	0.893	0.702	0.864	0.951	1.06	0.967	0.622	0.939	0.877	0.47	0.886
NCI-H2087	0.157	0.139	0.147	0.158	0.548	0.641	0.573	0.324	0.241	0.847	0.77	0.763	0.784	0.681	0.624	–	0.634	0.691	–	1.13
NCI-H2126	0.929	0.972	0.947	0.965	0.7	0.757	0.611	0.574	0.625	1.1	0.976	1.01	1.12	0.716	0.653	0.588	0.68	0.655	0.872	0.992
NCI-H2170	0.653	0.726	0.843	0.696	0.686	0.737	0.635	0.367	0.73	1.2	1.16	1.15	1.26	0.249	0.264	0.25	0.244	0.242	0.76	1.22
NCI-H2228	0.153	0.101	0.145	0.13	0.526	0.523	0.464	0.17	0.221	0.529	0.49	0.442	0.379	0.32	0.308	0.344	0.325	0.408	0.152	0.362
NCI-H2347	0.322	0.406	0.283	1.01	0.412	0.501	0.431	0.4	0.258	0.814	0.946	0.813	0.84	0.526	0.425	0.374	0.411	0.432	0.186	0.566
NCI-H2405	0.745	0.691	0.659	0.766	0.591	0.602	0.657	0.622	0.594	0.825	0.807	0.833	0.832	0.984	1.04	–	1.01	1.04	0.556	0.787
NCI-H3122	0.0986	0.102	0.115	0.088	0.98	0.949	0.943	0.322	0.974	0.315	0.235	0.296	0.266	0.184	0.198	0.187	0.205	0.188	0.1	0.218
PC-3 [JPC-3]	0.784	0.68	0.687	0.657	0.83	0.741	0.58	0.749	0.831	1.02	1.01	1.01	1.07	1.14	1.15	–	0.951	1.02	0.6	0.936
